For data set [1] the following is noted: polymersomes and lipids (liposomes), comparison; cited from earlier work.
The target of data set [2] is Melittin (Apis mellifera, UniProt P01501). The settings on record: Melittin 63 μL, 300 μM into 2 mL suspension.
For data set [3], the system named is human umbilical vein endothelial cells (HUVECs). Description: Cell viability, CellTiter-Blue assay. In kind it is cell-based. Conditions: CellTiter-Blue, 1, 2 and 4 h, compared to control. The procedure: Since endothelial cells are the first point of contact for intravenous drug formulations, the toxicity of the dendrosomes was evaluated in vitro on human umbilical vein endothelial cells (HUVECs). HUVECs were cultured in EGM Endothelial Growth Media (LONZA) supplemented with bovine brain extract (BBE) with heparin, h-EGF, hydrocortisone, gentamicin, amphotericin B (GA-1000), and fetal bovine serum (FBS). Cells were maintained in plastic culture flasks at 37° C. in a humidified atmosphere containing 5% CO2 and were further subcultured when the flasks were 70% to 90% confluent. The passage number of the cells for the HUVECs in vitro studies was 5-8. The investigation of toxicity of dendrosomes and viability of the cells was assessed fluorometrically by determining the number of viable cells present in multiwell plates. Cell viability was determined using the indicator dye resazurin, which is reduced by viable cells to a highly fluorescent form resorufin according to Scheme S17. […] The CellTiter-Blue Cell Viability Assay was obtained from Promega.
HUVECs were plated at a density of 3,200 cells per well (10,000 cells/cm^2) in 96 well tissue culture plates and allowed to adhere overnight. Culture media was removed from the wells and replaced with 250 μL of either: 100% media, 94% media/6% PBS buffer, 87.5% media/12.5% PBS buffer, 75% media/25% PBS buffer, 100% PBS buffer, and various concentrations of sterile dendrosomes and polymersomes ranging from 0.25 mg to 0.0625 mg in the three concentrations of media/PBS, and maintained at 37° C. in a humidified atmosphere of 5% CO2. The dendrosomes and polymersomes were prepared by film the hydration method as described in section S5.1 and extruded 25 times through 100 nm polycarbonate membrane. Dendrosomes and polymersomes were sterilized by exposing them for […] min to UV irradiation. […] The fluorescence intensity at 590 nm emanating from the wells when excited at 560 nm was then determined using a TECAN Inifinite2000 plate reader.
(In general: Alamar Blue is a resazurin reagent that responds to reducing activity.)

The nature of data set [4]: Micropipette aspiration of giant unilamellar dendrosomes (mechanical properties). It is filed as physicochemical. How it is done: The elastic properties of dendrosome membranes were determined by micropipette aspiration following an analogous procedure described previously (Needham, Biophys. J. 58, 997-1009 (1990)). Giant unilamelar (˜[…] diameter) dendrosomes were prepared by Teflon film hydration as described herein and dispersed into iso-osmotic ultrapure water. Glass micropipettes with inner diameter from ˜3 μm to ˜10 μm were filled with iso-osmotic ultrapure water and connected to an aspiration station mounted on the side of a Zeiss inverted microscope, equipped with a manometer. The pipettes were used to manipulate the dendrosomes and to apply well-defined stress to the wall by inducing suction tension on their membranes.
The micropipette suction pressure is controlled in the range of microatmospheres and tenths of atmospheres (0.1 N/m^2 to 10000 N/m^2). The tension results in deformation and consequently provides direct measurements of the elastic moduli, which characterizes the membrane area expansion and bending, together with other parameter that characterize the tensile failure of the vesicle membrane according to the equations (1) and (2): Ka=Δτ/Δα (1) Es=Ka(αc)^2/2 (2) were Ka=elastic area expansion modulus; Δτ=fractional tension; τs=membrane tension at failure; Δα=fractional increase in membrane area; αc=critical areal strain-fractional increase in membrane area at failure, and Es=energy stored at failure Results are presented in the Table below.

Data set [5] in a line: Dynamic light scattering of dendrosomes formed by ethanol injection (size, polydispersity). It is filed as physicochemical. How it is done: Dynamic light scattering measurements (DLS) were performed with a Malvern Instruments particle sizer (Zetasizer® Nano S, Malvern Instruments, UK).
Small unilamellar dendrosomes of <200 nm size were obtained by fast injection of 100 μL of ethanol (THF, acetone, dioxane, acetonitrile or DMSO for the solvent dependence studies) solution containing 10 mg of Janus-dendrimer dissolved in 1 mL of solvent into various volumes of milippore water (0.5 mL-5 mL) giving final Janus-dendrimer concentrations of 0.1-2 mg/mL. Dendrosomes obtained via injection method were used without further manipulation to study the influence of concentration, solvent, temperature and time on size and polydispersity by dynamic light scattering (DLS) as well as for the characterization of dendrosome morphologies via cryogenic transmission electron microscopy (cryo-TEM).
Dendrosomes were formed according to the general method discussed herein at final concentrations from 0.5-20 mg/mL. DLS measurements were carried out immediately following injection and repeated after 60 min. […] Monomodal distributions were obtained from 0.5-7 mg/mL and bimodal distributions from 10-20 mg/mL. […] At concentrations over […], multimodal size distributions and increased flocculation in time was observed.
Dendrosomes were formed according to the general method discussed herein at final concentrations of 0.5 mg/mL aqueous solution.

Data set [6] can be described thus: Miscibility of Janus-dendrimers with phospholipids (microscopy, DSC). It is filed as physicochemical. Conditions: 1:1 ratio, film hydration.
Where [7] appears, read: concentrations of 0.5-2 mg/mL, unimodal distributions.

Like-named read-outs stand apart in the source and are kept apart here.

Sequence of Melittin (P01501 44-69 limits assumed): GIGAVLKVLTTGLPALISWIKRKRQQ

Turning to `CCCCCCCCCCCCCC(=O)OC[C@H](COP(=O)([O-])OCC[N+](C)(C)C)OC(=O)CCCCCCCCCCCCC` [DMPC], the “Ka (elastic area expansion modulus)” value in data set [1] is on record as 234 mN/m.
As for `CCCCCCCC/C=C\CCCCCCCC(=O)O[C@H](COC(=O)CCCCCCCCCCCCCCCCC)COP(=O)([O-])OCC[N+](C)(C)C` [SOPC, 1-Stearoyl-2-Oleoyl-Sn-Glycero-3-Phosphatidylcholine, reference compound], the “CD signal after Melittin addition” value in data set [2] was “showed CD signal”.
“(3,4)12G1-PE-(3,4,5)-3EO-G1-(OCH3)6 [Dendrosome 1]”: the “cell viability / toxicity” value in data set [3] is on record as “excellent biocompatibility”.
As to “(3,4)12G1-PE-BMPA-G2-(OH)8 [(3,4)12G1-PE-BMPA-(OH)8]”, in data set [4], the “Critical αc (critical areal strain)” value is recorded as 0.04, the “Energy stored at failure” value was 0.42 mJ/m^2, the “Ka (elastic area expansion modulus)” value is on record as 961 mN/m and the “Lysis Tension τs” value stood at 20.4 mN/m. Moreover, in data set [5] (setting [7]), the PDI is 0.07-0.2 and the sizes was 111-175 nm.
(3,4,5)12G1-PE-(3,4,5)-3EO-G1-(OH)6: in data set [4], the “Critical αc (critical areal strain)” value was determined as 0.04, the “Energy stored at failure” value was 0.27 mJ/m^2, the “Ka (elastic area expansion modulus)” value is 267.5 mN/m and the “Lysis Tension τs” value is recorded as 12.7 mN/m. Also, in data set [3], the “cell viability / toxicity” value is given as “excellent biocompatibility”.
Regarding “(3,4,5)12G1-PE-BMPA-G2-(OH)8 [(3,4,5)12G1-PE-BMPA-(OH)8]”, in data set [4], the “Critical αc (critical areal strain)” value is listed as 0.06, the “Energy stored at failure” value is listed as 0.11 mJ/m^2, the “Ka (elastic area expansion modulus)” value came to 42.44 mN/m and the “Lysis Tension τs” value was found to be 0.88 mN/m.
For (3,5)12G1-PE-(3,4)-3EO-G1-(OH)4 the same measures were 0.06, 0.73 mJ/m^2, 582.5 mN/m and 15.11 mN/m.
Take “(3,5)12G1-PE-(3,4,5)-3EO-G1-(OCH3)6 [Dendrosome 2]”: in data set [3], the “cell viability / toxicity” value was “excellent biocompatibility”.
Regarding “(3,5)12G1-PE-BMPA-G2-(OH)8 [(3,5)12G1-PE-BMPA-(OH)8]”, in data set [4], the “Critical αc (critical areal strain)” value was determined as 0.03, the “Energy stored at failure” value stood at 0.69 mJ/m^2, the “Ka (elastic area expansion modulus)” value is on record as 976 mN/m and the “Lysis Tension τs” value is on record as 15.5 mN/m. In addition, in data set [5] (concentration 0.5 mg/mL), the Z-average size is 94 nm and the polydispersity was 0.04. In data set [5] (concentration 10 mg/mL), this compound gave a Z-average size of 330 nm and a polydispersity of 0.17. In data set [5] (concentration of 20 mg/mL), this compound showed a PDI of 0.4 and a sizes of 1004 nm. Moreover, in data set [5] (concentrations of 0.5-10 mg/mL), the sizes is reported as 94-330 nm. Moreover, the “miscibility with SOPC” value in data set [6] is on record as “confirmed by DSC”. Besides, the “CD signal after Melittin addition” value in data set [2] was “showed CD signal”.
In the case of DAPC, in data set [1], the “Critical αc (critical areal strain)” value was 0.04, the “Ka (elastic area expansion modulus)” value is on record as 57 mN/m and the “Lysis Tension τs” value was 2.3 mN/m.

These data come from patent US9623046B2, “Amphiphilic Janus-dendrimers” (The Trustees Of The University Of Pennsylvania, priority 2009, dated 2017).
